In patent publication US20120065066A1, “NOVEL HERBICIDES” (SYNGENTA CROP PROTECTION LLC, priority 2009, published 2012):

Tests used:
Assay type in all cases: in vivo
Conditions in all cases: 312 h, evaluated after 13 days, 100=total damage to plant, 0=no damage to plant
[1] = tested on: Avena fatua (AVEFA); assay: Test Example B, pre-emergence herbicidal test
Description: (§1) Seeds of a variety of test species were sown in standard soil in pots. After cultivation for one day (pre-emergence) or after 8 days cultivation (post-emergence) under controlled conditions in a glasshouse (at 24/16° C., day/night; 14 hours light; 65% humidity), the plants were sprayed with an aqueous spray solution derived from the formulation of the technical active ingredient in acetone/water (50:50) solution containing 0.5% Tween 20 (polyoxyethelyene sorbitan monolaurate, CAS RN 9005-64-5). The test plants were then grown in a glasshouse under controlled conditions in a glasshouse (at 24/16° C., day/night; 14 hours light; 65% humidity) and watered twice daily. After 13 days for pre and post-emergence, the test was evaluated (100=total damage to plant; 0=no damage to plant). Test Plants: Setaria faberi (SETFA), Alopecurus myosuroides (ALOMY), Echinochloa crus-galli (ECHCG), and Avena fatua (AVEFA).

[2] = tested on: Alopecurus myosuroides (ALOMY); assay: Test Example B, pre-emergence herbicidal test
Description: as §1

[3] = tested on: Echinochloa crus-galli (ECHCG); assay: Test Example B, pre-emergence herbicidal test
Description: as §1

[4] = tested on: Avena fatua (AVEFA); assay: Test Example B, post-emergence herbicidal test
Description: as §1

[5] = tested on: Alopecurus myosuroides (ALOMY); assay: Test Example B, post-emergence herbicidal test
Description: as §1

[6] = tested on: Echinochloa crus-galli (ECHCG); assay: Test Example B, post-emergence herbicidal test
Description: as §1

Row | Structure (SMILES) | pest or weed control at 250 g/ha [1] [%] | pest or weed control at 250 g/ha [2] [%] | pest or weed control at 250 g/ha [3] [%] | pest or weed control at 250 g/ha [4] [%] | pest or weed control at 250 g/ha [5] [%] | pest or weed control at 250 g/ha [6] [%]
1 | CCc1ccc(-c2ccc(Cl)cc2)cc1C1=C(O)[C@H]2[C@H]3CC[C@H](C3)[C@H]2C1=O (racemic) [Compound T1, rac-(3aR,4R,7S,7aS)-2-(4′-chloro-4-ethylbiphenyl-3-yl)hexahydro-4,7-methanoindene-1,3-dione] | 100 | 70 | 100 | 100 | 90 | 100
2 | CCc1ccc(-c2ccc(Cl)cc2)cc1C1=C(O)[C@H]2[C@H]3CC[C@H](CC3)[C@H]2C1=O (racemic) [Compound T3, rac-(3aR,7aS)-2-(4′-chloro-4-ethylbiphenyl-3-yl)hexahydro-4,7-ethanoindene-1,3-dione] | 70 | 70 | 100 | 90 | 100 | 100
3 | CCc1ccc(-c2ccc(Cl)cc2)cc1C1=C(O)[C@@H]2[C@H](C1=O)[C@@H]1C=C[C@H]2CC1 (racemic) [Compound T6, rac-(3aR,4S,7R,7aS)-2-(4′-chloro-4-ethylbiphenyl-3-yl)-3a,4,7,7a-tetrahydro-4,7-ethanoindene-1,3-dione] | 40 | 60 | 100 | 60 | 70 | 100
4 | CCc1ccc(-c2ccc(Cl)cc2F)cc1C1=C(O)[C@H]2[C@H]3CC[C@H](CC3)[C@H]2C1=O (racemic) [Compound T10, rac-(3aR,7aS)-2-(4′-chloro-4-ethyl-2′-fluorobiphenyl-3-yl)hexahydro-4,7-ethanoindene-1,3-dione] | 0 | 0 | 90 | 0 | 0 | 90
5 | CCc1ccc(-c2ccc(Cl)cc2F)cc1C1=C(O)[C@H]2[C@H]3CC[C@H](C3)[C@H]2C1=O (racemic) [Compound T28, rac-(3aR,4R,7S,7aS)-2-(4′-chloro-4-ethyl-2′-fluorobiphenyl-3-yl)-hexahydro-4,7-methanoindene-1,3-dione] | 90 | 60 | 100 | 10 | 30 | 90
6 | Cc1ccc(-c2ccc(Cl)cc2)cc1C1=C(O)[C@H]2[C@H]3CC[C@H](C3)[C@H]2C1=O [Compound T2] | 80 | 30 | 100 | 60 | 40 | 100
7 | Cc1ccc(-c2ccc(Cl)cc2)cc1C1=C(O)[C@H]2[C@H]3CC[C@H](CC3)[C@H]2C1=O [Compound T4] | 70 | 50 | 100 | 80 | 70 | 100
8 | CCc1ccc(-c2ccc(Cl)cc2Cl)cc1C1=C(O)[C@H]2[C@H]3CC[C@H](CC3)[C@H]2C1=O [Compound T11] | 0 | 0 | 60 | 100 | 90 | 100
9 | CCc1ccc(-c2ccc(Cl)cc2C)cc1C1=C(O)[C@H]2[C@H]3CC[C@H](CC3)[C@H]2C1=O [Compound T12] | 20 | 60 | 100 | 40 | 90 | 100
10 | CCc1ccc(-c2ccc(Cl)c(Cl)c2)cc1C1=C(O)[C@H]2[C@H]3CC[C@H](CC3)[C@H]2C1=O [Compound T13] | 0 | 20 | 90 | 60 | 60 | 100
11 | CCc1ccc(-c2ccc(Cl)c(OC)c2)cc1C1=C(O)[C@H]2[C@H]3CC[C@H](CC3)[C@H]2C1=O [Compound T14] | 70 | 80 | 100 | 0 | 0 | 90
12 | CCc1ccc(-c2cc(Cl)sc2Cl)cc1C1=C(O)[C@H]2[C@H]3CC[C@H](CC3)[C@H]2C1=O [Compound T15] | 0 | 0 | 30 | 30 | 40 | 80
13 | CCc1ccc(-c2ccc(Cl)c(C(F)(F)F)c2)cc1C1=C(O)[C@H]2[C@H]3CC[C@H](CC3)[C@H]2C1=O [Compound T16] | 20 | 60 | 100 | 0 | 0 | 30
14 | CCc1ccc(-c2ccc(Cl)s2)cc1C1=C(O)[C@H]2[C@H]3CC[C@H](CC3)[C@H]2C1=O [Compound T17] | 90 | 80 | 100 | 50 | 40 | 90
15 | CCc1ccc(-c2ccc(Cl)c(F)c2)cc1C1=C(O)[C@H]2[C@H]3CC[C@H](CC3)[C@H]2C1=O [Compound T18] | 50 | 50 | 90 | 100 | 100 | 100
16 | CCc1ccc(-c2c(F)cc(Cl)cc2F)cc1C1=C(O)[C@H]2[C@H]3CC[C@H](CC3)[C@H]2C1=O [Compound T20] | 100 | 100 | 100 | 100 | 100 | 100
17 | CCc1ccc(-c2ccc(Cl)cc2Cl)cc1C1=C(O)[C@H]2[C@H]3CC[C@H](C3)[C@H]2C1=O [Compound T29] | 90 | 30 | 100 | 0 | 30 | 100
18 | CCc1ccc(-c2ccc(Cl)cc2C)cc1C1=C(O)[C@H]2[C@H]3CC[C@H](C3)[C@H]2C1=O [Compound T30] | 30 | 40 | 100 | 0 | 0 | 90
19 | CCc1ccc(-c2ccc(Cl)c(Cl)c2)cc1C1=C(O)[C@H]2[C@H]3CC[C@H](C3)[C@H]2C1=O [Compound T31] | 70 | 20 | 80 | 70 | 60 | 100
20 | CCc1ccc(-c2ccc(Cl)c(C(F)(F)F)c2)cc1C1=C(O)[C@H]2[C@H]3CC[C@H](C3)[C@H]2C1=O [Compound T33] | 30 | 20 | 100 | 70 | 70 | 90
21 | CCc1ccc(-c2ccc(Cl)s2)cc1C1=C(O)[C@H]2[C@H]3CC[C@H](C3)[C@H]2C1=O [Compound T34] | 40 | 30 | 100 | 80 | 60 | 90
22 | CCc1ccc(-c2ccc(Cl)c(F)c2)cc1C1=C(O)[C@H]2[C@H]3CC[C@H](C3)[C@H]2C1=O [Compound T35] | 70 | 80 | 90 | 90 | 90 | 90
23 | CCc1ccc(-c2ccc(Cl)nc2)cc1C1=C(O)[C@H]2[C@H]3CC[C@H](C3)[C@H]2C1=O [Compound T36] | 40 | 30 | 80 | 20 | 0 | 50
